In US20230052740A1, “MODULATORS OF CIRCADIAN RHYTHMS AND USES THEREOF” (The Regents of the University of California, priority 2019, published 2023):
Where two headings read alike, the source gives them in different places. Blank lines part the entries; values can stand above or below the molecule they belong to.

Tests used:
[1] = target: T1, MT2 (Homo sapiens, UniProt P49286); test: cAMP assay (GloSensor), isoproterenol-stimulated cAMP in HEK cells; format: cell-based; parameters: expressed in transfected cells; host or cells: HEK-T (HEK-293 T) cells, co-transfected with GloSensor DNA; MT2 activity: dose or concentration left out as unconfirmed; settings: for selectivity for MT2 over MT1: FIG. 7 analogs of '9032
T1 sequence (P49286 1-362): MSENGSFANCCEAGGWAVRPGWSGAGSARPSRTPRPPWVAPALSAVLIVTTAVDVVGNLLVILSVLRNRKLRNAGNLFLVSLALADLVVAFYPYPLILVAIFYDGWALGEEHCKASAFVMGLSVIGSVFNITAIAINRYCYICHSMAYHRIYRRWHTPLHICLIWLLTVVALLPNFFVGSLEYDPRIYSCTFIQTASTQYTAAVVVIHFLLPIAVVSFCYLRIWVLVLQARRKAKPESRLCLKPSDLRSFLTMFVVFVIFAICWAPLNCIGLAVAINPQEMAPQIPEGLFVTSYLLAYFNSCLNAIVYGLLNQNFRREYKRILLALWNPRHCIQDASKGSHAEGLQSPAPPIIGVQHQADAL
Procedure: MT1 and MT2 receptors were tested using Promega's spilt luciferase based GboSensor cAMP biosensor technology. HEK-T cells were plated in 15 cm cell culture dish (at a density of 18 million cells) containing DMEM composed of 10% dialyzed FBS, 2 mM L-glutamine, 100 units/ml penicillin G, 100 μg/ml streptomycin for 4-6 hour. Then, cells were co-transfected with 8 μg of construct which encodes either MT1 or MT2 (de-Tangonized constructs) and […] of Glosensor DNA. […] The next day, cell medium were discarded and loaded with 20 μl of assay buffer (1×HBSS, 20 mM HEPES, pH 7.4, 0.1% BSA). To measure agonist activity of MT1 or MT2 receptor, 10 μl of test compound solution at 3× final concentration was added for 15 minutes followed by addition of 10 μl of luciferin/isoproterenol mixture (at a final concentration of 4 mM and 200 nM respectively) for another 15 mins for luminescence quantification. Then, plates were counted using SpectraMax luminescence reader (Molecular Device). Data were analyzed using GraphPad Prism 6.0.

[2] = target: hMT1 (Homo sapiens, UniProt P48039); test: as above; format: cell-based; parameters: expressed in transfected cells; host or cells: HEK-T (HEK-293 T) cells, co-transfected with GloSensor DNA; settings: for Emax: read-out: MT1 % Emax (converted); for EC50: read-out: EC50 at MT1
Chain of hMT1 (P48039 whole entry): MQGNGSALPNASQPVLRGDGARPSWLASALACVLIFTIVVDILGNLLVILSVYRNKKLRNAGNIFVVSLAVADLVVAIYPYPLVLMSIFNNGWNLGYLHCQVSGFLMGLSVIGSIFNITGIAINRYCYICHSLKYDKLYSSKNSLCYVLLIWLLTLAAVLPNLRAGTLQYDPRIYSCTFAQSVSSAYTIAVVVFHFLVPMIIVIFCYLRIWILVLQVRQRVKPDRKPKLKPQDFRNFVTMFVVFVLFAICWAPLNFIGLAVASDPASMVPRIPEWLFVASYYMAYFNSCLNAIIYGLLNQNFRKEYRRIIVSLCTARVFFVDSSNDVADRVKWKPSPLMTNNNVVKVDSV
Procedure: HEK-293 T cells were maintained with complete Dulbecco's modified Eagle's medium (DMEM), which is composed of 10% fetal bovine serum (FBS), 2 mM L-glutamine, 100 units/ml penicillin G, 100 μg/ml streptomycin at 37° C. in the presence of 5% CO2
MT1 and MT2 receptors were tested using Promega's spilt luciferase based GboSensor cAMP biosensor technology. HEK-T cells were plated in 15 cm cell culture dish (at a density of 18 million cells) containing DMEM composed of 10% dialyzed FBS, 2 mM L-glutamine, 100 units/ml penicillin G, 100 μg/ml streptomycin for 4-6 hour. Then, cells were co-transfected with 8 μg of construct which encodes either MT1 or MT2 (de-Tangonized constructs) and […] of Glosensor DNA. Next day, transfected cells were seeded into poly-L-lysinecoated 384-well white clear bottom cell culture plates with complete DMEM with 1% dialized FBS at a density of 20,000 cells per well for another 24 h. The next day, cell medium were discarded and loaded with 20 μl of assay buffer (1×HBSS, 20 mM HEPES, pH 7.4, 0.1% BSA). To measure agonist activity of MT1 or MT2 receptor, 10 μl of test compound solution at 3× final concentration was added for 15 minutes followed by addition of 10 μl of luciferin/isoproterenol mixture (at a final concentration of 4 mM and 200 nM respectively) for another 15 mins for luminescence quantification. Then, plates were counted using SpectraMax luminescence reader (Molecular Device). Data were analyzed using GraphPad Prism 6.0.

[3] = HEK293, Table 1, agonist, normalized to melatonin response
[4] = HEK293, Table 1, cell marked Inverse (inverse agonist), read-out: MT2 % Emax (converted)
[5] = Table 1, cell marked Inverse (inverse agonist)
[6] = inverse agonist, read-out: EC50 at MT2
[7] = HEK293, Table 1, agonist, normalized to melatonin response, read-out: MT2 % Emax (converted)
[8] = Table 1, agonist, normalized to melatonin response
[9] = HEK293, Table 2, cell marked Inverse (inverse agonist), read-out: MT2 % Emax (converted)
[10] = Table 2, cell marked Inverse (inverse agonist)
[11] = HEK293, Table 2, cell marked Inverse (inverse agonist)
[12] = panel of widely-used MTR ligands, in words
[13] = HEK293, Table 2, agonist, normalized to melatonin response, read-out: MT2 % Emax (converted)
[14] = HEK293, Table 2, agonist, normalized to melatonin response

MT2 activity [1]: without detectable MT2 activity
Emax [2, 3]: 88%
EC50 ([2]; agonist): 2 to 6 µM
Structure (SMILES): COc1ccc(CN(C(=O)C2CC2C)c2ccncc2)cc1 (centres unmarked) [ZINC151209032]

Structure (SMILES): COc1ccc(CNc2cccc(-c3nnc[nH]3)c2)cc1 [ZINC157665999]
Emax [1, 4]: 90%
MT2 pEC50 [1, 5]: 7.29 ± 0.16
EC50 [1, 6]: 0.05 µM
Emax [2, 3]: 63%
MT1 pEC50 ([2]; Table 1, agonist): 4.89 ± 0.38
EC50 ([2]; agonist): 10 µM

Structure (SMILES): COc1cccc2c1CCN(C(=O)c1ccc(F)nc1)C2 [ZINC182731037]
MT2 activity [1]: without detectable MT2 activity
Emax [2, 3]: 82%
MT1 pEC50 ([2]; Table 1, agonist): 5.30 ± 0.09
EC50 ([2]; agonist): 2 to 6 µM

Emax [1, 7]: 75%
Structure (SMILES): Cc1cc(=O)n2ccn(CCc3ccc4c(c3)OC(F)(F)O4)c2n1 [ZINC664088238]

Structure (SMILES): COc1ccc(CN(C)C(=O)c2cccc(OC(F)F)c2)cc1O [ZINC353044322]
MT2 activity [1]: without detectable MT2 activity
Emax [2, 3]: 87%
MT1 pEC50 ([2]; Table 1, agonist): 5.48 ± 0.05
EC50 ([2]; agonist): 2 to 6 µM

MT2 % Emax [1, 8]: 83 ± 3%
selectivity for the MT1 v. the MT2 receptor type [2]: 2 fold
MT1 % Emax [2, 8]: 99 ± 1%
Emax(%) at MT1 ([2]; agonist): 99±1%
pEC50 at MT1 ([2]; agonist): 9.00±0.15
Structure (SMILES): COC(=O)c1ccc(CSc2nnc(C3CC3)[nH]2)s1 [ZINC159050207]

Structure (SMILES): CCOC(=O)c1nc(N(C)CC2CCCC2O)ccc1Br (centres unmarked) [ZINC603324490]
Emax [1, 4]: 202%
EC50 [1, 6]: 0.6 µM
Emax ([2]; HEK293, Table 1, cell marked Inverse (inverse agonist)): 37%
MT1 pEC50 [2, 5]: 5.92 ± 0.29
MT1 efficacy ([2]; in the concentration range of its MT2 inverse agonism (600 nM)): without substantial MT1 efficacy

Emax ([1]; HEK293, Table 5, read-out: MT2 Emax): 75 ± 5%
EC50 ([1]; Table 5, MT2 receptor agonists, read-out: MT2 pEC50 (converted)): 0.00182 µM
Structure (SMILES): COc1ccc(C2CC2)c(CNc2cccnc2)c1

Structure (SMILES): Clc1ccc(CNc2cccc(-c3nnc[nH]3)c2)c(Cl)c1 [ZINC157676497]
Emax [1, 9]: 62%
MT2 pEC50 [1, 10]: 6.01 ± 0.30
Emax [2, 11]: 60%
MT1 pEC50 [2, 10]: 7.32 ± 0.05

efficacy at the MT2 receptor [1, 12]: partial agonism
Structure (SMILES): CC(=O)NCCc1c(Cc2ccccc2)[nH]c2ccccc12 [Luzindole, reference compound]

type selectivity [1, 12]: little type selectivity
Structure (SMILES): CCC(=O)NCC[C@@H]1CCc2ccc3c(c21)CCO3 [ramelteon, reference compound]

Structure (SMILES): COc1ccc(CN(C(=O)c2ccccc2F)c2ccncc2)cc1 [ZINC151192780]
selectivity for MT2 over MT1 [1]: 200 fold
Emax [1, 13]: 95%
MT2 pEC50 ([1]; Table 2, agonist): 7.13 ± 0.12
Emax [2, 14]: 54%
MT1 pEC50 ([2]; Table 2, agonist): 5.18 ± 0.22

Structure (SMILES): CN(Cc1ccc2c(c1)OCO2)c1ccnc(Cl)c1 [ZINC223593565]
Emax [1, 13]: 58%
Emax [2, 14]: 86%

Structure (SMILES): COc1ccc(CNc2cccnc2)cc1 [ZINC5586789]
Emax [1, 13]: 51%
MT2 pEC50 ([1]; Table 2, agonist): 8.07 ± 0.15
Emax [2, 14]: 37%
MT1 pEC50 ([2]; Table 2, agonist): 6.81 ± 0.72

Structure (SMILES): COc1ccc(CN(C(=O)OC2CCC2)c2ccncc2)cc1 [ZINC497291360]
selectivity for MT2 over MT1 [1]: 2 fold
Emax [1, 13]: 75 ± 50.1%
MT2 pEC50 ([1]; Table 2, agonist): 7.48 ± 0.05
Emax [2, 14]: 92%
MT1 pEC50 ([2]; Table 2, agonist): 7.05 ± 0.10

Structure (SMILES): Cc1nnc(-c2cccc(NCc3ccc(Cl)cc3)c2)[nH]1 [ZINC37781620]
Emax [1, 9]: 120%
MT2 pEC50 [1, 10]: 6.20 ± 0.10
Emax [2, 11]: 19%
MT1 pEC50 [2, 10]: 7.90 ± 0.90

Structure (SMILES): COc1ccc(CN(C(=O)c2scc(C)c2Cl)c2ccncc2)cc1 [ZINC485552623]
Emax [1, 13]: 107%
MT2 pEC50 ([1]; Table 2, agonist): 5.80 ± 0.06
MT1 activity ([2]; FIG. 7D, in words): without detectable MT1 activity

Structure (SMILES): Cn1c(=O)oc2c(NCc3ccc(-c4cc[nH]n4)o3)cccc21 [ZINC433313647]
Emax [1, 7]: 96%
Emax [2, 3]: 42%
MT1 pEC50 ([2]; Table 1, agonist): 6.81 ± 0.32
